Test results: PubChem BioAssay (NCI)
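96-well plates; 48 h exposure; 5 concentrations. Endpoints by linear interpolation between flanking doses. Not reached: highest tested concentration assigned. TGI marks complete inhibition of growth.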

Tests used:
Experiment in all cases: inhibition of tumour cell growth, NCI panel, 48 h
[1] = test system: HCT-116 colon
[2] = test system: LXFL 529 NSCLC
[3] = test system: M19-MEL melanoma
[4] = test system: NCI-H23 lung
[5] = test system: SK-MEL-28 melanoma
[6] = test system: SK-OV-3 ovarian
[7] = test system: UACC-62 melanoma
[8] = test system: DU-145 prostate
[9] = test system: MDA-MB-231 breast
[10] = test system: BT-549 breast

COC(=O)C(C(=O)C(=O)Nc1ccc([N+](=O)[O-])cc1)c1nc2cc(C)c(C)cc2[nH]c1=O (centres undefined)
TGI [1]: > 100 µM | TGI [2]: > 100 µM | TGI [3]: > 100 µM | TGI [4]: > 100 µM | TGI [5]: > 100 µM | TGI [6]: > 100 µM | TGI [7]: > 100 µM

O=c1nc(-c2ccccc2)scc1-c1ccccc1
TGI [1]: > 100 µM | TGI [2]: > 100 µM | TGI [3]: > 100 µM | TGI [4]: > 100 µM | TGI [5]: > 100 µM | TGI [6]: > 100 µM | TGI [7]: > 100 µM

COc1ccc(NC(=O)CC(=O)n2nc(-c3ccccc3)c(N=Nc3ccccc3C)c2-c2ccccc2)cc1
TGI [8]: > 100 µM | TGI [1]: 47.9 µM | TGI [2]: > 100 µM | TGI [3]: > 100 µM | TGI [9]: > 100 µM | TGI [4]: 51.1 µM | TGI [5]: > 63.2 µM | TGI [6]: 36.3 µM | TGI [7]: 46.6 µM

CC1=C2[C@@H](c3ccccc3)C3C=CC2(c2ccccc23)N(C(=O)Nc2cccc3ccccc23)C1=O (some centres undefined)
TGI [1]: > 100 µM | TGI [2]: > 100 µM | TGI [4]: > 100 µM | TGI [5]: > 100 µM | TGI [6]: > 100 µM | TGI [7]: > 100 µM

CNC(=O)OCc1cc2ccncc2c2c1[nH]c1ccccc12
TGI [1]: > 100 µM | TGI [2]: > 100 µM | TGI [3]: > 100 µM | TGI [4]: > 100 µM | TGI [5]: > 100 µM | TGI [7]: > 100 µM

N#Cc1nc(Nc2ccc(Cl)cc2)sc1N
TGI [1]: > 100 µM | TGI [2]: 22.7 µM | TGI [3]: > 100 µM | TGI [4]: 13.2 µM | TGI [5]: > 70.8 µM | TGI [6]: > 100 µM | TGI [7]: 42.8 µM

COc1cc2c(cc1OC)C1(c3ccccc3)ON=C(c3ccccc3)N1CS2 (centres undefined)
TGI [1]: > 100 µM | TGI [2]: > 100 µM | TGI [3]: > 100 µM | TGI [4]: > 100 µM | TGI [5]: > 100 µM | TGI [6]: > 100 µM | TGI [7]: > 100 µM

O=C(CC(=O)c1cccc([N+](=O)[O-])c1)C(=O)Nc1nc([N+](=O)[O-])cs1
TGI [1]: > 100 µM | TGI [2]: > 100 µM | TGI [3]: > 100 µM | TGI [4]: > 100 µM | TGI [5]: > 100 µM | TGI [6]: > 100 µM | TGI [7]: > 100 µM

CC1OC(n2cc(I)c(=O)[nH]c2=O)C=CC1=O (centres undefined)
TGI [1]: 24.9 µM | TGI [2]: 22.7 µM | TGI [3]: 30.6 µM | TGI [4]: 30.7 µM | TGI [5]: 29.2 µM | TGI [6]: 73.2 µM | TGI [7]: 31.2 µM

O=c1[nH]c(=O)n(C2OC(CO)C(O)C2O)cc1OCc1ccccc1 (centres undefined)
TGI [1]: > 83.2 µM | TGI [2]: > 100 µM | TGI [3]: > 100 µM | TGI [4]: > 100 µM | TGI [5]: > 100 µM | TGI [6]: > 100 µM | TGI [7]: > 100 µM

CCCCCCCCCCNC(=S)OCCCC
TGI [1]: 34.7 µM | TGI [2]: 55.6 µM | TGI [3]: > 100 µM | TGI [4]: 53.9 µM | TGI [5]: 72.2 µM | TGI [6]: 77.3 µM | TGI [7]: 53.1 µM

COc1ccc(C(=O)C(CC2C(=O)CC(C)(C)C(C(=O)C(=O)Nc3c(C)cccc3C)C2=O)c2ccc(OC)cc2)cc1 (centres undefined)
TGI [10]: > 100 µM | TGI [8]: > 100 µM | TGI [1]: > 100 µM | TGI [9]: > 100 µM | TGI [4]: > 100 µM | TGI [5]: > 100 µM | TGI [6]: > 100 µM | TGI [7]: > 100 µM

CCOC1=C2C(C)(CCC3[C@@]4(C)C=CC(=O)C(C)(C)C4CC(O)[C@@]23C)C(c2ccoc2)C1=O (some centres undefined)
TGI [1]: 23.7 µM | TGI [3]: 44.1 µM | TGI [4]: 34.8 µM | TGI [5]: 30.5 µM | TGI [6]: 76.8 µM | TGI [7]: 57.7 µM

Cc1ccc(C)c(N2C(=O)C(=O)c3c(C)ccc(C)c32)c1
TGI [10]: 42.2 µM | TGI [8]: > 100 µM | TGI [1]: 32 µM | TGI [9]: 49.8 µM | TGI [4]: 70 µM | TGI [5]: > 100 µM | TGI [6]: > 100 µM | TGI [7]: 34.8 µM
